Laboratory results: US11458138B2 (Novartis AG, priority 2017, dated 2022)

What was measured:
limbal stem cells (LSCs) [1] = test: LSC population expansion, p63-alpha immunolabelling and cell count; assay type: cell-based, human; details: for LSC colony formation and p63alpha expression: up to 6 days in culture, vs growth medium and DMSO
Excerpt: FIG. 2A: In the presence of growth medium and DMSO, only a few isolated cells attach to the culture dish and survive up to 6 days. Most cells expressed the human nuclear marker, but few expressed p63alpha. FIGS. 2B and 2C: In contrast, in the presence of LATS inhibitors: compound example no. 49 and example no. […] FIG. 2D: Passaging cells and culturing them in the presence of LATS inhibitor compound example no.
(§1) If it is desired to measure the cell number or expansion of the cell population, this may be done for example by taking an aliquot and performing immunocytochemistry (e.g. to count nuclei stained with Sytox Orange) or by live cell imaging under brightfield microscope to count the number of cells or by performing real-time quantitative live-cell analysis of cell confluence at various time points during the cell population expansion phase of the method according to the invention.
The Sytox Orange assay may be performed according to standard protocols known in the art. In brief, after cells have attached to the cell culture dish (typically 24 h after cell plating), the cells are fixed in paraformaldehyde. The cells are then permeabilized (e.g. using a solution of 0.3% Triton X-100) and they are then labeled in a solution of Sytox Orange (e.g. using 0.5 micromolar of Sytox Orange in PBS). The number of nuclei stained with Sytox Orange per surface area are then counted under a Zeiss epifluorescence microscope.
(2) The cell preparation comprises more than 6% p63alpha positive cells. Preferably the cell preparation comprises more than 10%, 20%, 30%, 40%, 50%, 60%, 70%, 80% or 90% p63alpha positive cells. In a preferred embodiment the cell preparation comprises more than 95% p63alpha positive cells. The percentage of p63alpha cells may be measured by immunohistochemistry or FACS.

limbal stem cells (LSCs) [2] = test: Immunolabelling of LSC markers DeltaN-p63 alpha/beta/gamma, ABCG2, C/EBP delta; assay type: cell-based, human; details: vs cells cultured in DMSO
Excerpt: In contrast, cells cultured in the presence of LATS inhibitors express markers such as DeltaN-p63 alpha/beta/gamma, ABCG2 and C/EBP delta, normally expressed by LSCs.
(3) The cells express one or more of ABCB5, ABCG2, and C/EBPδ. The expression of ABCB5, ABCG2, and C/EBPδ may be estimated by standard techniques known in the art, such as for example immunohistochemistry and quantitative RT-PCR.

[3] = test system: YAP translocation in Corneal Endothelial Cells (CECs); test: YAP nuclear translocation in Corneal Endothelial Cells (CECs); assay type: cell-based, human
[4] = test system: YAP phosphorylation in CECs; test: YAP dephosphorylation in CECs by Western blot; assay type: cell-based, human; details: within one hour of treatment, normalized to beta-actin and total YAP
Excerpt: As shown in FIG. 15a by Western blot; FIG. 15b: graph showing phosphorylated YAP levels normalized to beta-actin; and FIG. 15c: graph showing phosphorylated YAP levels normalized to total YAP.

[5] = test system: Corneal Endothelial Cells (CECs); test: CEC proliferation, Incucyte confluence by real-time live-cell analysis; assay type: cell-based, human; details: vs vehicle DMSO
Excerpt: FIG. 16: CECs grown in presence or absence of LATS inhibitors. An Incucyte system (Essen Biosciences) was used to measure CEC confluence by real-time quantitative live-cell analysis over a time course. Compound ex. 49 (black squares) and ex.
as §1

[6] = test system: phospho-YAP (ser127) in human LSCs; test: YAP phosphorylation by western blot in LSCs; assay type: cell-based; details: 10 micromolar, 1 hour
Procedure: Cells obtained as described in Example B1 were detached from the culture dish with Accutase for 10 minutes at 37° C., cell suspensions were rinsed by centrifugation and plated in DMEM F12 supplemented with 10% human serum and 1.3 mM calcium chloride in 6-well plates (Corning) and cultured without LATS inhibitor compounds for 2-4 days.
The medium was then replaced by fresh limbal epithelium cell culture medium (DMEM F12 supplemented with 10% human serum and 1.3 mM calcium chloride) supplemented with LATS inhibitor compound example no. […] Cells were cultured under these conditions for 1 hour at 37° C. in 5% CO2.
To measure the effect of the LATS inhibitors on the downstream target YAP, the YAP phosphorylation levels were measured by western blot as follows. The cell pellets were obtained by trypsin dissociation and centrifugation and washed with PBS. The pellets were lysed with 30 microlitres of RIPA lysis buffer containing protease inhibitor cocktail (Life Technologies) for 30 minutes, with vortexing every 10 minutes. The cell debris were then pelleted at 4° C. for 15 minutes at 14 k rpm and the protein lysate was collected. Protein concentration was quantified using a micro BCA kit (Pierce). Fifteen micrograms of total protein was loaded in each well of 4-20% TGX gels (BioRad) and Western blotting was performed according to the manufacturer's instructions. […]

YAP in human CECs = test: Intracellular YAP distribution in corneal endothelial cells (CECs); assay type: cell-based; details: 10 micromolar, 24 hours
Procedure: Cells obtained as described in Example C1 were plated in glass-bottom black wall 24-well dishes in corneal endothelial cell culture medium (human endothelial SF (serum free) medium (Invitrogen) with human serum) supplemented with LATS inhibitor compound example no. 133 or compound example no. […] Cells were cultured under these conditions for 24 hours at 37° C. in 5% CO2.
To measure the effect of the LATS inhibitors on the downstream target YAP, intracellular YAP distribution was analyzed by immunohistochemistry. Cell cultures were fixed with 4% PFA for 20 minutes, permeabilized and blocked in a blocking solution of 0.3% Triton X-100 (Sigma-Aldrich) and 3% donkey serum in PBS for 30 minutes. Cells were then labeled with primary antibody in the blocking solution for 12 hours at 4° C. Primary antibody used was anti-YAP from Santa Cruz Biotechnology. Samples were washed in PBS three times and donkey-raised secondary antibody Alexa Fluor 488 (Molecular Probes) at 1:500 dilution were applied for 30 minutes at room temperature. […] Fluorescence was observed using a Zeiss LSM 880 confocal microscope.

[7] = test system: human corneal endothelial cells (CECs); test: Human corneal endothelial cell population expansion, cell confluence (Incucyte); assay type: cell-based; details: 10 micromolar, 10 days
Procedure: Cells obtained as described in Example C1 were detached from the culture dish with 100 microlitres of Accutase (ThermoFisher) for 10 minutes at 37° C., cell suspensions were rinsed by centrifugation and plated in corneal endothelial cell culture medium (human endothelial SF medium (Invitrogen) with human serum) in 6-well plates (Corning) supplemented with LATS inhibitor compound example no. […] Cells were cultured at 37° C. in 5% CO2.
To measure cell proliferation, an Incucyte machine was used following the manufacturer's instructions (Essen Biosciences) to perform real-time quantitative live-cell analysis of cell confluence every 3 hours for 10 days.

limbal stem cells (LSCs) [8] = test: Differentiation of expanded LSCs into corneal epithelium cells (p63alpha / keratin 12); assay type: cell-based, human; details: transferred to conditions that enable differentiation
Excerpt: Shown are views where the transition from the p63alpha-positive cell identity to the keratin-12 identity are occurring.
These characteristics can be observed by immunohistochemistry or FACS.

Row | SMILES | LSC colony formation and p63alpha expression (limbal stem cells (LSCs) [1]) | expression of LSC markers DeltaN-p63 alpha/beta/gamma, ABCG2 and C/EBP delta (limbal stem cells (LSCs) [2]) | translocation of YAP into the nucleus in CECs [3] | YAP dephosphorylation in CECs [4] | CEC proliferation (confluence over time) [5] | YAP phosphorylation levels in human LSCs (western blot) [6] | YAP immunostaining in CECs (YAP in human CECs) | Proliferation of human CECs (percentage confluence over time) [7] | LSC population expansion after passaging (limbal stem cells (LSCs) [1]; passaged cells cultured for two weeks) | differentiation of expanded LSCs into corneal epithelium cells (keratin 12) (limbal stem cells (LSCs) [8])
1 | Cc1n[nH]cc1-c1nc(NC2(C)CC2)c2ccncc2n1 [Example 133, 2-(3-methyl-1H-pyrazol-4-yl)-N-(1-methylcyclopropyl)pyrido[3,4-d]pyrimidin-4-amine] | formed colonies and expressed p63alpha | express typical markers of LSCs | induce translocation of YAP into the nucleus | induce YAP dephosphorylation | induced strong CEC proliferation | reduction in YAP phosphorylation levels | stronger | could activate proliferation in these cells |  | 
2 | CC(C)(O)CC(C)(C)Nc1nc(-c2ccncc2)nc2cnccc12 [Example 49, 2,4-dimethyl-4-{[2-(pyridin-4-yl)pyrido[3,4-d]pyrimidin-4-yl]amino}pentan-2-ol] | formed colonies and expressed p63alpha | express typical markers of LSCs | induce translocation of YAP into the nucleus | induce YAP dephosphorylation | induced strong CEC proliferation | reduction in YAP phosphorylation levels | stronger | could activate proliferation in these cells | enabled cell population expansion and the formation of confluent cultures expressing p63alpha | can differentiate into corneal epithelium cells
3 | CC(C)(C)Nc1cc(-c2ccncc2)nc2cnccc12 [Example 261, N-(tert-butyl)-2-(pyridin-4-yl)-1,7-naphthyridin-4-amine] |  |  |  |  |  |  |  |  |  | can differentiate into corneal epithelium cells
